The conditions of this data set: a range is the spread between reports.

For orientation: melting point means the temperature of the solid-liquid transition. Regarding `CCCCCCCCCCCCCCCO`, the melting point lay within 45.5 to 46 °C.

`BrCc1ccc(Br)cc1` displayed a melting point of 62 to 63 °C.

In turn, `C=CCCCCCCCCCO` showed a melting point of -3 to -2 °C. With `CC1(C)CC(C)(c2ccccc2)c2ccccc21` (stereo unspecified), the melting point was in the range of 50 to 52.5 °C. For the compound `CCOC(=O)CC(C)C`, the melting point is -99.3 to -99 °C. Next, `CCCCCCC(C)CC` (stereo unspecified): -85 to -84.8 °C; `CS`: -123 to -121 °C; `Nc1ccccc1`: -6.3 to -6 °C.

Consider `Cc1cnc2ccccc2c1`, for which the melting point is 15 to 16.5 °C.

`O=[N+]([O-])c1ccccc1O` came in with a melting point of 44 to 46 °C. Next, `O=Cc1cccc(I)c1`: 56 to 58 °C; `C=CC(C)C`: -168 °C.

`COc1ccc2c(c1OC)C(=O)OC2` registered a melting point of 101 to 102 °C. Next, `NC(=O)OCc1ccccc1`: 87 to 88 °C; `Cc1ccc2n[nH]nc2c1`: 81 °C; `COc1ccc(C(=O)O)cc1OC`: 180 to 181 °C. In turn, `NC(=O)NCc1ccccc1` yielded a melting point of 148 to 149 °C.

In turn, `Cc1ccc(C)s1` returned a melting point of -63 to -62.6 °C. The compound `CN(C)c1cccc2c(S(=O)(=O)Cl)cccc12` returned a melting point of 70 to 72 °C. Next, `O=C(Oc1cccc(OC(=O)c2ccccc2)c1)c1ccccc1`: 116 to 118 °C. For `CCCCC(C)=O`, the melting point is -57 to -55.5 °C. As for `O=S(=O)(c1ccc(Cl)cc1)c1ccc(Cl)cc1`, the melting point lay in the range of 148 to 149 °C. As to `C/C=C/C=O`, the melting point was -76.5 to -76 °C.

As for `O=Cc1ccc([N+](=O)[O-])o1`, the melting point is 35.5 to 36 °C. Turning to `CCCOC(=O)CC`, the melting point is -76 to -75.9 °C. In turn, `C[Si]1(C)O[Si](C)(C)O[Si](C)(C)O1` registered a melting point of 60 to 65 °C. For the compound `Cc1cc(C)nc(C)c1`, the melting point was -46 to -43 °C. `O=CN1CCOCC1` displayed a melting point of 21 to 22 °C.

`C=CS(=O)(=O)c1ccccc1` showed a melting point of 68 to 69 °C.

As to `CC(=O)c1ccc2ccccc2c1`, the melting point lay within 53 to 56 °C. On to `O=C(Oc1ccccc1)Oc1ccccc1`, for which the melting point was 79 to 83 °C. On to `C=CC(=O)NC(C)(C)CC(C)=O`, for which the melting point is 55 to 57.5 °C. Turning to `O=c1cn[nH]c(=O)[nH]1`, the melting point is 274 to 276 °C. As for `O=[N+]([O-])c1ccc(Nc2ccccc2)c([N+](=O)[O-])c1`, the melting point lay in the range of 159 to 160 °C. `Oc1ccc2c(c1)CCCC2` displayed a melting point of 57 to 62 °C.

`Nc1cccc2ccc(O)cc12`: the melting point lay within 206 to 208 °C. In the case of `Oc1c(I)cc(I)cc1I`, the melting point lay within 158 to 160 °C. The compound `O=C(O)C(Cl)=C(Cl)Cl` registered a melting point of 73 to 76 °C. Next, `CCOC(=O)C(C(=O)OCC)C(=O)OCC`: 28 to 29 °C. `O=C(O)c1c(F)c(F)c(F)c(F)c1F`: the melting point lay in the range of 101 to 102 °C.

Take `CC(=O)n1ccnc1`: the melting point is 101 to 102 °C. For the compound `O=C(O)c1cccc(Cl)c1[N+](=O)[O-]`, the melting point lay in the range of 237 to 238 °C. The compound `OCCCCCCCCCO` had a melting point of 45.8 to 47 °C.

For `CN[C@@H](C)[C@H](O)c1ccccc1`, the melting point was in the range of 34 to 36 °C.

As for `CCCCCC#N`, the melting point is -80.3 to -80 °C. Compound `O=C(O)c1cc([N+](=O)[O-])ccc1Cl` returned a melting point of 166 to 167 °C. In the case of `Fc1ccc(-c2ccccc2)cc1`, the melting point was 74 to 74.2 °C. The compound `BrCC(Br)(Br)CBr` returned a melting point of 10.5 to 11 °C. Compound `CCCCCCCCCCCCCC(=O)CCCCCCCCCCCCC` showed a melting point of 77.5 to 78 °C. Compound `c1cncnc1` had a melting point of 21 to 22 °C. As for `O=C(O)Cc1ccccc1`, the melting point was in the range of 76 to 79 °C. The compound `N#C/C=C/c1ccccc1` returned a melting point of 19 to 22 °C. Next, `Nc1ccc(Cl)cc1[N+](=O)[O-]`: 116 to 118 °C; `Oc1ccc2c(c1)[nH]c1ccccc12`: 272 °C. Regarding `Cc1ccnc(N)c1`, the melting point lay within 99 to 100 °C.

On to `CCOc1cccc(C(=O)O)c1`, for which the melting point lay within 136 to 137 °C.

On to `N#Cc1cccc2ccccc12`, for which the melting point lay within 36 to 37.5 °C. Next, `Clc1ccc(-c2ccccc2)cc1`: 78 to 78.8 °C; `CC(=O)Oc1ccc(-c2ccc(OC(C)=O)cc2)cc1`: 161 to 164 °C. In the case of `O=C(OCc1ccccc1)c1ccccc1C(=O)OCc1ccccc1`, the melting point lay in the range of 41 to 44 °C. In the case of `Oc1ccccc1Br`, the melting point lay within 5 to 5.6 °C. With `Nc1ccc(F)cc1F`, the melting point was -8 to -7.5 °C. Consider `N#Cc1ccc(Cl)c([N+](=O)[O-])c1`, for which the melting point was 99 to 100 °C. In turn, `CN1C(=C(O)Nc2ccccn2)C(=O)c2ccccc2S1(=O)=O` came in with a melting point of 198 to 199 °C. The compound `N#CCc1ccccc1Cl` displayed a melting point of 23 to 24 °C. With `N#CCC(N)=O`, the melting point was in the range of 120 to 122 °C. Compound `O=C1C=Cc2cccc3cccc1c23` yielded a melting point of 154 °C. For the compound `CCC(C)=O`, the melting point is -87 to -86 °C.

`NC(=S)NS(=O)(=O)c1ccc(N)cc1` came in with a melting point of 179 to 182 °C. As to `O=C(O)c1ccc(F)cc1F`, the melting point was 188 to 189 °C. Consider `Ic1ccc(I)s1`, for which the melting point lay within 41 to 41.5 °C. Next, `Cc1ccc(OC(=O)c2ccccc2)cc1`: 70 to 71.5 °C. `O=Cc1ccc(C=O)cc1` gave a melting point of 115 to 117 °C. Consider `FC(F)F`, for which the melting point was -160 to -155 °C. With `NS(=O)(=O)c1ccc(Cl)cc1`, the melting point is 145 to 146 °C. The compound `O=C(O)CCCC(=O)O` had a melting point of 96.5 to 97.8 °C.

The compound `O=C(O)CCCCCC(=O)O` displayed a melting point of 104 to 106 °C. As to `CCCCCCCCI`, the melting point was -46 to -44 °C. On to `CCCC#CC(=O)O`, for which the melting point lay in the range of 25 to 27 °C. Turning to `CCOC(=O)c1ccccn1`, the melting point is 1 to 2 °C. Next, `O=C1CCCCCCCCCCC1`: 60 to 61 °C; `CC(C)OC(=O)C=CC(=O)OC(C)C`: 2 to 2.1 °C. Compound `Cc1ccnc(N)n1` came in with a melting point of 160 °C. Next, `O=C1OC(=O)c2cccc3cccc1c23`: 270 to 271 °C; `Cc1cccc(C)c1[N+](=O)[O-]`: 15 to 16 °C. The compound `CCCCCCCCCCCCC(=O)O` yielded a melting point of 41.5 to 44.5 °C.

The compound `Cc1n[nH]c(=O)[nH]c1=O` had a melting point of 211 to 213 °C. The compound `Oc1ccc(Cl)c(Cl)c1` yielded a melting point of 66 to 68 °C. As to `O=C(O)c1ccsc1`, the melting point lay in the range of 138 to 139 °C. Take `CCCCCCC=O`: the melting point was -43.3 to -43 °C. Turning to `Cc1ccc(O)c(C(C)(C)C)c1`, the melting point lay in the range of 51.5 to 52 °C. Turning to `BrCCCCBr`, the melting point is -20 to -16.5 °C. With `CN`, the melting point was -93.4 to -93 °C. As to `Cc1cccc(C)c1Cl`, the melting point is -36 to -35 °C. Next, `COc1ccc(C(C)=O)cc1`: 38 to 38.5 °C; `COc1cc(Cl)ccc1N`: 51 to 52 °C. As to `OCCc1ccc(O)cc1`, the melting point was in the range of 90 to 91 °C.

`O=[N+]([O-])c1ccc(N=C=S)cc1` displayed a melting point of 108 to 111 °C. For the compound `Fc1c(F)c(F)c(-c2c(F)c(F)c(F)c(F)c2F)c(F)c1F`, the melting point lay in the range of 67 to 68 °C. Next, `CCC#CCCCC`: -104 °C; `NCC(CC(=O)O)c1ccc(Cl)cc1` (stereo unspecified): 207 to 208 °C; `CC(=O)CC(=O)c1ccccc1`: 56 to 59 °C. Next, `CCCCC1(CC)C(=O)NC(=O)NC1=O`: 126 to 128 °C. `O=[N+]([O-])c1ccc(I)cc1` came in with a melting point of 173 to 176 °C. On to `O=[N+]([O-])c1c(F)cc(F)cc1F`, for which the melting point lay within 3.5 to 4 °C.

`CCC1(O)CC2CN(CCc3c([nH]c4ccccc34)C(C(=O)OC)(c3cc4c(cc3OC)N(C=O)C3C(O)(C(=O)OC)C(OC(C)=O)C5(CC)C=CCN6CCC43C65)C2)C1` (stereo unspecified) returned a melting point of 219 °C. Next, `NC(=O)c1cc([N+](=O)[O-])cc([N+](=O)[O-])c1`: 182 to 184 °C; `CCCCCCCCC(C)C`: -49 to -48.9 °C. Compound `CCCCCCOC(C)=O` returned a melting point of -80.9 to -80 °C.

`N#CCCC#N` yielded a melting point of 54 to 56 °C. Next, `C=Cn1c2ccccc2c2ccccc21`: 63 to 65 °C; `C=Cc1ccc(Br)cc1`: 5 to 7.7 °C; `O=C(Cl)c1cccc([N+](=O)[O-])c1`: 33 to 36 °C. Compound `COc1ccc(CC#N)cc1OC` yielded a melting point of 62.8 to 64 °C. In turn, `CCCCCCCCCCCCCCCCCCCCCCCCCCC` registered a melting point of 59 to 59.5 °C. For `COc1cccc(N)c1`, the melting point was -1 to 0 °C. `Cc1cc(C)c(CC(=O)O)c(C)c1` registered a melting point of 168 to 169 °C.

`CCCCNC(=S)NCCCC` came in with a melting point of 64 to 66 °C. As for `c1ccc([Si](c2ccccc2)(c2ccccc2)c2ccccc2)cc1`, the melting point is 236 to 237 °C.

For the compound `CCCCCCCCCCCCCCCCCCCCCCCCCCCC`, the melting point was in the range of 62 to 64.5 °C.

For the compound `ClCc1cccc(CCl)c1`, the melting point was in the range of 34.2 to 36 °C. As to `O=C(C=CC=Cc1ccc2c(c1)OCO2)N1CCCCC1`, the melting point was 131 to 132 °C. As for `COC(=O)c1ccccc1`, the melting point was -15 to -12 °C. The compound `C=CC(=O)OCC` yielded a melting point of -71.2 to -71 °C.

For the compound `O=C(O)c1ccccc1C(=O)c1ccccc1`, the melting point lay in the range of 127 to 129 °C.

Regarding `C[Si](c1ccccc1)(c1ccccc1)c1ccccc1`, the melting point was in the range of 67 to 69.5 °C. As to `COc1ccc(C)cc1OC`, the melting point lay in the range of 24 to 27 °C. Consider `O=C(CC(=O)C(F)(F)F)c1cccs1`, for which the melting point fell in the range of 42 to 43 °C.

Turning to `CCOC(=O)NCCOc1ccc(Oc2ccccc2)cc1`, the melting point is 53 to 53.5 °C.

`COC(=O)c1cccc(C(=O)OC)c1`: the melting point fell in the range of 67.5 to 69 °C. As to `O=C=Nc1ccc([N+](=O)[O-])cc1`, the melting point fell in the range of 57 to 58 °C. Next, `OCCSSCCO`: 25 to 26 °C.

`N#Cc1cccnc1` displayed a melting point of 50 to 51 °C.

On to `OCc1cccc2ccccc12`, for which the melting point was in the range of 61 to 64 °C.

`C1CN2CCN1CC2` showed a melting point of 158 to 159 °C.

`CCc1ccc(O)cc1`: the melting point is 43 to 47 °C.

Values taken from a melting point compilation (Tetko et al.).
